Measured values as given in publication PMC7970304, “The Effects of Apelin and Elabela Ligands on Apelin Receptor Distinct Signaling Profiles” (Frontiers in Pharmacology, 2021).

Columns and labels:
APJ (Apelin receptor) [1] = biological target: T1, APJ (Apelin receptor) (Homo sapiens, UniProt P35414); assay: BRET-based cAMP biosensor (CAMYEL) assay; type: cell-based
T1 sequence (P35414 1-380): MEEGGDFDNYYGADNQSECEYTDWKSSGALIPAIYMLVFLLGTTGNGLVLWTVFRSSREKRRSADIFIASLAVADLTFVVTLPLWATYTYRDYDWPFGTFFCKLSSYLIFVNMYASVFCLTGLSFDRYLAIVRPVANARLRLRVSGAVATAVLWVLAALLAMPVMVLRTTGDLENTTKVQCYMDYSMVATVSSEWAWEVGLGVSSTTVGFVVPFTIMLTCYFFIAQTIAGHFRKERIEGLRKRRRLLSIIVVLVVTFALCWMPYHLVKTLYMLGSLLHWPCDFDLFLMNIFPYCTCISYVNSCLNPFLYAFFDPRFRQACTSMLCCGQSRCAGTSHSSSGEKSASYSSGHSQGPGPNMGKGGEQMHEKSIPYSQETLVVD
Method: The cAMP concentration was measured using a BRET-based cAMP biosensor ([Barak et al., 2008]; [Ji et al., 2017]) in HEK293 cells transiently co-expressing YFP-Epac-RLuc and APJ. The sensor is composed of an N-terminal truncated variant of EPAC tagged with Rluc and YFP at N-terminal and C-terminal, respectively. […] At 24 h after transfection, cells were digested and plated into a 96-well microplate for 24 h following adding the substrate coelenterazine H into the medium at the final concentration of 5 µM and the nonspecific phosphodiesterase inhibitor IBMX (40 μM) for 20 min, and the cells were stimulated for 10 min with forskolin (10 μM).
(A) A schematic diagram of YFP-cAMP-Rluc fusion expression vector. […] Data represent mean ± SEM from four independent experiments (Supplementary Table S1).
The concentration-response data for the ligands in various assays were analyzed to determine the biases of the ligands for G protein dependent signaling or β-arrestin dependent signaling, according to a previously published method ([Kenakin et al., 2012]; [Hager et al., 2016]; [Hothersall et al., 2017]). Briefly, the concentration-response data for each ligand were fitted to the Black–Leff operation model to obtain the values of τ and K A, using the following equation: Response=[A]^nτ^nEm/[A]^nτ^n+([A]KA)^n where [A] is the concentration of the agonist, E m is the maximal response of the system, n is the transducer slope, and K A and τ describe the affinity and efficacy of the agonist, respectively. In the data fitting, the reparametrized form of the equation proposed by [Kenakin et al. (2012)] was used: Response=Em/1+exp{nln[1+exp(β1)/[A]]−nβ2} where β 1 and β 2 are the natural logarithm of K A and τ, respectively, and E m was set to 1. Thus, for each concentration-response curve, a non-linear regression was performed to fit the above equation to give β 1 and β 2 (as well as n). Log (τ/K A) values (“transduction coefficients”) for each ligand vs. each pathway were obtained. […] The ΔΔlog (τ/K A), or Log (Bias), which is the logarithm of the bias factor for a given pathway over a reference pathway (here, intracellular calcium release), was calculated for each ligand as Δlog (τ/K A)–Δlog (τ/K A)Calcium. The 95% confidence interval (CI) was expressed as the mean ± standard error; Log (Bias) values, whose 95% CI crosses 0, were considered statistically insignificant.
The data were analyzed using GraphPad Prism v5.0. All the data are presented as the mean ± SEM. Differences between groups were compared by one-way analysis of variants (ANOVA), followed by post-hoc tests (Tukey’s test), When p < 0.05, the difference was considered significant. All experiments were repeated at least four times. The dose-response curves were generated using non-linear fitting model log (agonist) vs. response (three-parameters), with Hill Slope held to 1, i.e., Y = Bottom + (Top-Bottom)/(1 + 10^(LogEC50-X)).
P<0.05 was considered as statistically significant. Control group (HG, Cells were stimulated with high glucose (Glucose Concentration: 4500 mg/L, HEPES, No Phenol Red). Data represent mean ± SEM from four independent experiments. Statistical analysis (Table S1)

APJ (Apelin receptor) [2] = biological target: T1, APJ (Apelin receptor); assay: Radioligand competition binding assay, [125I]-apelin-13, HEK-293/APJ membranes; parameters: APJ membrane preparations were obtained from transiently transfected HEK293 cells; host or cells: HEK293 cells, transiently transfected; membranes prepared; details: [125I]-apelin-13 competition
Method: APJ membrane preparations were obtained from transiently transfected HEK293 cells. HEK293 cells were cultured in complete DMEM (DMEM plus 10% FBS) for 24 h, until they reached at least 70% confluence. Transfection reagent containing 20 μg of the APJ expression plasmid was added, and the cells were incubated for another 24 h. The cells were then harvested into 25 ml homogenization buffer (HB) [250 mM sucrose and 25 mM HEPES (pH 7.3); adjusted to pH 7.5 at 4°C and then filtered] supplemented with 250 μL phenylmethylsulfonyl fluoride (PMSF), homogenized using an IKA T25 Ultra Turrax (24,000 rpm), and centrifuged at 6,025 rpm for 15 min at 4°C. […]
The binding reaction was stopped by rapid filtration through polyethyleneimine (PEI)-coated GF/B plates using a cell harvester, and the plates were washed three times with ice-cold wash buffer [50 mM HEPES (pH 7.4), 500 mM NaCl, and 0.1% BSA; filtered and stored at 4°C]. The filtration plates were dried at 37°C for 2 h; 50 μL scintillation cocktail (Perkin Elmer, Wellesley, MA, United States), was added to each well; and the radioactivity was measured using a Perkin Elmer 1450 MicroBeta TriLux Microplate Scintillation and Luminescence Counter.
The binding reaction was stopped, the plates were washed and dried, the scintillation cocktail was added, and the radioactivity was measured as described above.

## CSCC[C@H](NC(=O)[C@@H]1CSSC[C@H](NC(=O)[C@H](CC(N)=O)NC(=O)[C@H](Cc2c[nH]cn2)NC(=O)[C@H](CCCCN)NC(=O)[C@H](CCCNC(=N)N)NC(=O)[C@@H](N)CC(C)C)C(=O)N[C@@H](CC(C)C)C(=O)N[C@@H](CCC(N)=O)C(=O)N[C@@H](CCCNC(=N)N)C(=O)N[C@@H](CCCNC(=N)N)C(=O)N1)C(=O)N1CCC[C@H]1C(=O)N[C@@H](CC(C)C)C(=O)N[C@@H](Cc1c[nH]cn1)C(=O)N[C@@H](CO)C(=O)N[C@@H](CCCNC(=N)N)C(=O)N[C@H](C(=O)N1CCC[C@H]1C(=O)N[C@@H](Cc1ccccc1)C(=O)N1CCC[C@H]1C(=O)O)C(C)C [Elabela-21]
APJ (Apelin receptor) [1]; 0.001 nM
  P vs HG, cAMP production: P>0.05
APJ (Apelin receptor) [1]; 0.01 nM
  P vs HG, cAMP production: P>0.05
APJ (Apelin receptor) [1]; 0.1 nM
  P vs HG, cAMP production: P>0.05
APJ (Apelin receptor) [1]; 1 nM
  P vs HG, cAMP production: ^**P<0.01
APJ (Apelin receptor) [1]; 10 nM
  P vs HG, cAMP production: ^***P<0.001
APJ (Apelin receptor) [1]; 100 nM
  P vs HG, cAMP production: ^***P<0.001
APJ (Apelin receptor) [1]; 1000 nM
  P vs HG, cAMP production: ^***P<0.001
APJ (Apelin receptor) [1]; cAMP over Ca2+, reference Apelin-13
  Bias factor: 38.0
APJ (Apelin receptor) [1]; cAMP over Ca2+, reference Apelin-13, footnote a = statistically insignificant
  Log (Bias): 1.6 ± 0.3
APJ (Apelin receptor) [1]; cAMP pathway
  bias over calcium release: 38 fold
APJ (Apelin receptor) [1]; cAMP, Black–Leff operational model
  log (τ/KA): −0.1 ± 0.1
APJ (Apelin receptor) [1]; cAMP, relative to Apelin-13
  Δlog (τ/KA): 0.0 ± 0.2
APJ (Apelin receptor) [2]
  binding affinity (in words): slightly weaker binding affinity than Elabela-32
